From patent US20240368104A1, “Novel Dialkoxynaphtho[2,3-C]Furan-1(3H)-One Derivatives and Pharmaceutical Composition For Preventing or Treating Respiratory Disease or SARS-COV-2 Infection Disease, Comprising Same” (priority 2021, published 2024) come the findings set out here.

pIC50: −log10 of the molar value. Read-outs that look alike come from different tables or passages of the source.

For one data set, the system named is SARS-COV-2. In words: microbe, parasite or virus in culture. Particulars: for SI (Selectivity Index, CC50/IC50): SARS-COV-2, values >50 assumed to be 50; for pIC50: read-out: SARS-COV-2 inhibition (IC50). The arrangement: SI (Selectivity Index, CC50/IC50): unit not given here. The format is cell-based.
A short description of a further data set: in vitro. The following applies: African green monkey.
The mark [1] stands for this setting: Severe acute respiratory syndrome coronavirus 2, Vero cells, 24 hours infection.
The mark [2] stands for this setting: Severe acute respiratory syndrome coronavirus 2, Vero, 24 h.

For `COc1cc2cc3c(c(-c4cc5c(cc4OC(=O)c4cccnc4)OCO5)c2cc1OC)C(=O)OC3` [Example 272, 6-(6,7-dimethoxy-3-oxo-1,3-dihydronaphtho[2,3-c]furan-4-yl)benzo[d][1,3]dioxol-5-yl nicotinate], the “SI (Selectivity Index, CC50/IC50)” value in the data set on SARS-COV-2 is listed as 27.23. Moreover, in the data set with SARS-COV-2 (setting [1]), the negative-log IC50 (pIC50) (in general, −log10 of the IC50, conventionally taken in molar units) is 5.74. The CC50 in the data set “in vitro” was more than 50 µM.
The like results for `COc1cc2c(OC)c3c(c(-c4ccc5c(c4)OC(F)(F)O5)c2cc1OC)COC3=O` [Example 259, 4-(2,2-difluorobenzo[d][1,3]dioxol-5-yl)-6,7,9-trimethoxynaphtho[2,3-c]furan-1(3H)-one] were, in that order, 1.00, less than 4.30 and more than 50 µM.
The like results for `COCCN(C)C(=O)[C@@H]1CCCN1c1ncc(-c2c3c(cc4cc(OC)c(OC)cc24)COC3=O)cn1` [Example 33, (S)-1-(5-(6,7-dimethoxy-3-oxo-1,3-dihydronaphtho[2,3-c]furan-4-yl)pyrimidin-2-yl)-N-(2-methoxyethyl)-N-methylpyrrolidin-2-carboxamide] were, in that order, 1.00, less than 4.30 and more than 50 µM.
The like results for `COc1cc2cc3c(c(-c4cc5c(cc4OC(=O)c4ccncc4)OCO5)c2cc1OC)C(=O)OC3` [Example 271, 6-(6,7-dimethoxy-3-oxo-1,3-dihydronaphtho[2,3-c]furan-4-yl)benzo[d][1,3]dioxol-5-yl isonicoinate] were, in that order, 34.41, 5.84 and more than 50 µM.
With `COc1cc2cc3c(c(-c4cccc5cccnc45)c2cc1OC)C(=O)OC3` [Example 125, 6,7-dimethoxy-9-(quinolin-8-yl)naphtho[2,3-c]furan-1(3H)-one], the “SI (Selectivity Index, CC50/IC50)” value with SARS-COV-2 was 1.0. Also, the negative-log IC50 (pIC50) with SARS-COV-2 (setting [1]) was less than 4.30. Besides, the CC50 in “in vitro” is more than 50 µM.
Consider `COc1cc2cc3c(c(N4CCNCC4)c2cc1OC)C(=O)OC3` [Example 128, 6,7-dimethoxy-9-(piperazin-1-yl)naphtho[2,3-c]furan-1(3H)-one], for which, in the data set with SARS-COV-2, the “SI (Selectivity Index, CC50/IC50)” value is 1.78. In the data set on SARS-COV-2 (setting [2]), the negative logarithm of the IC50 (pIC50) was 4.55. The compound further displayed a CC50 in the data set “in vitro” of more than 50 µM.
Turning to `CCN(CC)c1ncc(-c2c3c(cc4cc(OC)c(OC)cc24)COC3=O)cn1` [Example 74, 9-(2-(diethylamino)pyrimidin-5-yl)-6,7-dimethoxynaphtho[2,3-c]furan-1(3H)-one], in the data set on SARS-COV-2, the “SI (Selectivity Index, CC50/IC50)” value turned out to be 98.94. The negative-log IC50 (pIC50) in the data set with SARS-COV-2 (setting [1]) is 6.29. In “in vitro”, this compound gave a CC50 of more than 50 µM.
`COc1cc2cc3c(c(-c4ccc(N5CCCCC5)cc4)c2cc1OC)C(=O)OC3` [Example 242, 6,7-dimethoxy-9-(4-(piperidin-1-yl)phenyl)naphtho[2,3-c]furan-1(3H)-one]: the “SI (Selectivity Index, CC50/IC50)” value in the data set with SARS-COV-2 came out at 5.45. Also, in the data set on SARS-COV-2 (setting [1]), the pIC50 was 5.71. In the data set “in vitro”, the CC50 stood at 10.6 µM.
For `COc1cc2cc3c(c(-c4cnc(N5CCC[C@H]5C(=O)O)nc4)c2cc1OC)C(=O)OC3` [Example 61, (5-(6,7-dimethoxy-3-oxo-1,3-dihydronaphtho[2,3-c]furan-4-yl)pyrimidin-2-yl)-L-proline], the “SI (Selectivity Index, CC50/IC50)” value with SARS-COV-2 is on record as 1.00. Besides, the pIC50 in the data set with SARS-COV-2 (setting [1]) is less than 4.30. For the same compound, the CC50 in “in vitro” is more than 50 µM.
For `COc1cc2cc3c(c(-c4ccc(N(C)Cc5cccs5)nc4)c2cc1OC)C(=O)OC3` [Example 198, 6,7-dimethoxy-9-(6-(methyl(thiophen-2-ylmethyl)amino)pyridin-3-yl)naphtho[2,3-c]furan-1(3H)-one], in that order: 48.47, 5.99 and more than 50 µM.
For `COc1cc2cc3c(c(-c4ccc(N(C)CCc5cn(C)c6ccccc56)nc4)c2cc1OC)C(=O)OC3` [Example 196, 6,7-dimethoxy-9-(6-(methyl(2-(1-methyl-1H-indol-3-yl)ethyl)amino)pyridin-3-yl)naphtho[2,3-c]furan-1(3H)-one], in that order: 20.54, 5.61 and more than 50 µM.
In the case of `COCCN(C)c1ccc(-c2c3c(c(OC)c4cc(OC)c(OC)cc24)C(=O)OC3)cn1.Cl` [Example 265, 6,7,9-trimethoxy-4-(6-((2-methoxyethyl)(methyl)amino)pyridin-3-yl)naphtho[2,3-c]furan-1(3H)-one], the “SI (Selectivity Index, CC50/IC50)” value in the data set with SARS-COV-2 was 1.51. In addition, the pIC50 with SARS-COV-2 (setting [2]) was 4.48. The same compound came in with a CC50 in “in vitro” of more than 50 µM.
Take `CCN(CCc1cn(CC)c2ccccc12)c1ccc(-c2c3c(cc4cc(OC)c(OC)cc24)COC3=O)cn1` [Example 197, 9-(6-(ethyl(2-(1-ethyl-1H-indol-3-yl)ethyl)amino)pyridin-3-yl)-6,7-dimethoxynaphtho[2,3-c]furan-1(3H)-one]: in the data set on SARS-COV-2, the “SI (Selectivity Index, CC50/IC50)” value amounted to 2.88. Moreover, the pIC50 with SARS-COV-2 (setting [1]) was 4.76. In “in vitro”, the CC50 was more than 50 µM.
Take `COc1cc2cc3c(c(-c4ccc(N5CCc6sccc6C5)nc4)c2cc1OC)C(=O)OC3` [Example 156, 9-(6-(6,7-dihydrothien[3,2-c]pyridin-5 (4H)-yl)pyridin-3-yl)-6,7-dimethoxynaphtho[2,3-c]furan-1(3H)-one]: in the data set with SARS-COV-2, the “SI (Selectivity Index, CC50/IC50)” value was 48.93. The pIC50 with SARS-COV-2 (setting [1]) was 5.99. This compound displayed a CC50 in the data set “in vitro” of more than 50 µM.
For `COc1cc2cc3c(c(N4CCN(c5ccc(Br)cn5)CC4)c2cc1OC)C(=O)OC3` [Example 129, 9-(4-(5-bromopyridin-2-yl)piperazin-1-yl)-6,7-dimethoxynaphtho[2,3-c]furan-1(3H)-one], in that order: 2.29, 4.66 and more than 50 µM.
Regarding `COc1cc2cc3c(c(-c4ccc(F)nc4)c2cc1OC)C(=O)OC3` [Example 35, 9-(6-fluoropyridin-3-yl)-6,7-dimethoxynaphtho[2,3-c]furan-1(3H)-one], the “SI (Selectivity Index, CC50/IC50)” value in the data set with SARS-COV-2 is 1.00. The pIC50 in the data set with SARS-COV-2 (setting [1]) was less than 4.30. This compound returned a CC50 in “in vitro” of more than 50 µM.
For `COc1cc2cc3c(c(-c4cnc(N(C)[C@H]5CCc6c(cccc6OC)C5)nc4)c2cc1OC)C(=O)OC3.Cl` [Example 96, (S)-6,7-dimethoxy-9-(2-((5-methoxy-1,2,3,4-tetrahydronaphthalen-2-yl)(methyl)amino)pyrimidin-5-yl)naphtho[2,3-c]furan-1(3H)-one hydrochloride], the “SI (Selectivity Index, CC50/IC50)” value in the data set with SARS-COV-2 came to 27.11. Further, the pIC50 in the data set on SARS-COV-2 (setting [2]) is 5.74. Also, the CC50 in the data set “in vitro” was more than 50 µM.
Take `COC[C@@H]1CCCN1c1ncc(-c2c3c(cc4cc(OC)c(OC)cc24)COC3=O)cn1.Cl` [Example 97, (S)-6,7-dimethoxy-9-(2-(2-(methoxymethyl)pyrrolidin-1-yl)pyrimidin-5-yl)naphtho[2,3-c]furan-1(3H)-one hydrochloride]: in the data set with SARS-COV-2, the “SI (Selectivity Index, CC50/IC50)” value came to 8.74. The pIC50 in the data set on SARS-COV-2 (setting [2]) was 5.24. Further, the CC50 in the data set “in vitro” is more than 50 µM.
Take `COc1cc2cc3c(c(-c4ccc(N(C)C)cc4)c2cc1OC)C(=O)OC3.Cl` [Example 247, 9-(4-(dimethylamino)phenyl)-6,7-dimethoxynaphtho[2,3-c]furan-1(3H)-one]: the “SI (Selectivity Index, CC50/IC50)” value with SARS-COV-2 came out at 344.5. Besides, the negative logarithm of the IC50 (pIC50) with SARS-COV-2 (setting [2]) is 6.82. Also, in “in vitro”, the CC50 is more than 50 µM.
